Several values for one entry are separate records, joined by “and”; a condition that tells them apart may be missing. Equal entries are not always repeated. Entries after “also recorded” stand apart in the source; their conditions may differ. Where two headings read alike, the source gives them in different places.
Assays:
[1] = test system: HCV genotype 1b replicon NS3 A156T; assay: Transient transfection replicon assay in Huh 7 cells, NS3 A156T; type: cell-based; details: EC50 mutant / EC50 wild-type; mean of two experiments
Experimental: (§2) Huh 7 cells were transfected with either the wild-type or the mutant RNA constructs by electroporation. Luciferase activity was measured 72 hours after compound treatment and EC50 values determined from dose-response curves. Fold resistance was expressed as the ratio of the EC50 for mutant HCV replicon to the EC50 for wild-type HCV replicon.
(§3) Huh 7 cells were transfected with either the wild type or the mutant RNA constructs by electroporation. Luciferase activity was measured 72 hours after compound treatment and EC50 values determined from dose-response curves. Fold resistance was expressed as the ratio of the EC50 for mutant HCV replicon to the EC50 for wild-type HCV replicon. Results are expressed as the mean of two individual experiments.

[2] = test system: HCV genotype 1b replicon NS3 R155K; assay: Transient transfection replicon assay in Huh 7 cells, NS3 R155K; type: cell-based; details: EC50 mutant / EC50 wild-type; mean of two experiments
Experimental: as §2, §3

[3] = test system: HCV genotype 1b replicon NS5B S282T; assay: Transient transfection replicon assay in Huh 7 cells, NS5B S282T; type: cell-based; details: EC50 mutant / EC50 wild-type; mean of two experiments
Experimental: as §2, §3

[4] = test system: HCV genotype 1b replicon NS5B M423I; assay: Transient transfection replicon assay in Huh 7 cells, NS5B M423I; type: cell-based; details: EC50 mutant / EC50 wild-type; mean of two experiments
Experimental: as §2, §3

[5] = test system: HCV genotype 1b replicon NS5A Y93H; assay: Transient transfection replicon assay in Huh 7 cells, NS5A Y93H; type: cell-based; details: EC50 mutant / EC50 wild-type; mean of two experiments
[6] = test system: Huh-luc/neo-ET HCV genotype Ib replicon cells; type: cell-based; details: 28 days culture under G418 selective pressure, crystal violet
Experimental: Cell culture and Assay setup: The reporter cell line Huh-luc/neo-ET was obtained and prepare as described previously. Cells were plated into 10 cm tissue culture dishes at a density of 3×10^5 cells per plate in culture medium containing 250 μg/ml G418 and incubated for 24 hours at 37° C. in an environment of 5% CO2. Following the 24 hour incubation, dilutions of SPC3649, SPC4729, or telaprevir were prepared in cell culture medium (as above) with 750 μg/ml G418. Each of the dilutions was added to duplicate plates and the plates were incubated at 37° C. in an environment of 5% CO^2. Two additional plates received cell culture medium with 750 μg/ml G418 as a no-treatment control. […] The final concentration of SPC4729 was 10.0 μM. […] Following 28 days of passage, one set of dishes was stained with crystal violet and the other set of plates was utilized for expansion and establishment of resistant cell culture stocks.
Huh-luc/neo-ET HCY genotype Ib replicon cells were cultured under selective pressure in the presence of 750 μg/mL G4 I8 with and without four independent fixed concentrations of SPC3649 anti-miR oligonucleotide, or telaprevir, or one concentration of scrambled oligonucleotide SPC4729 for 28 days in tissue culture plates. Duplicate tissue culture dishes were established and maintained for each culture condition. […]

HCV genotype 1 = assay: Phase 2a clinical trial, miravirsen monotherapy; type: in vivo, patients; details: for mean of the maximum HCV RNA decline from baseline: 5 weekly doses subcutaneously over 29 days
Experimental: Thirty-six treatment-naïve chronic HCV genotype 1 infected patients were enrolled into 3 sequential dosing cohorts and received 5 weekly doses of miravirsen 3, 5, or 7 mg/kg (n=27) or placebo (n=9) subcutaneously over 29 days and were followed up until week 18.

all HCV genotypes = assay: In vitro activity against HCV genotypes; type: cell-based
[7] = test system: HCV genotype Ib replicon in Huh-luc/neoET cells; type: cell-based; details: for Efficacy, Antagonism vol: in combination with miravirsen (SPC3649), 95% confidence interval, median (≧3 experiments) or individual values
Experimental: (§1) The anti-viral efficacy and cellular toxicity of non-transfected antimiR oligonucleotide in combination with approved and experimental anti-HCV therapeutics (boceprevir or telepravir, was determined in the reporter cell line Huh-luc/neo-ET. This cell line harbors the persistently replicating I389luc-ubi-neo/NS3-3′/ET replicon containing the firefly luciferase gene-ubiquitin-neomycin phosphotransferase fusion protein and EMCV IRES driven NS3-5B HCV coding sequences containing the ET tissue culture adaptive mutations (E1202G, T1208I, and K1846T). Eight dilutions of non-transfected antimiR oligonucleotide (bracketing the calculated EC50) were evaluated in triplicate on duplicate sets of three plates with five dilutions of each of the control compounds (bracketing the calculated EC50). One set of plates was used for the determination of cellular toxicity and the other set of plates is used for the determination of anti-viral efficacy. The efficacy and toxicity results was quantified with firefly luciferase activity and XTT dye reduction, respectively, and the results of the assay is imported into the Prichard and Shipman MacSynergy II software program. The MacSynery II analysis includes calculation of the dose response of the two (or more) compounds when used alone followed by calculation of the expected additive level of antiviral inhibition or toxicity when the compounds are used together based on the individual dose response curves. The expected level of activity at each of the concentration data points is compared to the experimentally determined antiviral activity in the assay. The expected activity was subtracted from the realized activity, yielding a negative, zero or positive value.
This example was based on an in vitro evaluation of SPC3649 (miravirsen) in combination with anti-HCV drugs and experimental compounds. […] The combination antiviral assays were performed using the reporter cell line Huh-luc/neo-ET, which contains a bicistronic HCV genotype Ib replicon. Combination data were analyzed using MacSynergy II software at the 95%, confidence interval. The in vitro combination assays were designed to define the antiviral interaction of the two compounds and to determine if their interaction was synergistic or antagonistic.
The reporter cell line Huh-luc/neo-ET was obtained from Dr. Ralf Bartenschlager (Department of Molecular Virology, Hygiene Institute, University of Heidelberg, Germany) by ImQuest BioSciences. This cell line harbors the persistently replicating 1389luc-ubi-neo/NS3-3′IET replicon containing the firefly luciferase gene-ubiquitinneomycin phosphotransferase fusion protein and EMCV IRES driven NS3-5B HCV coding sequences containing the ET tissue culture adaptive mutations (E 1202G, T12081, and KI846T). […]

Huh-luc/neo-ET = test system: Huh-luc/neo-ET
Experimental: as §1
The reporter cell line Huh-luc/neo-ET was obtained from Dr. Ralf Bartenschlager (Department of Molecular Virology, Hygiene Institute, University of Heidelberg, Germany) by ImQuest BioSciences. This cell line harbors the persistently replicating 1389luc-ubi-neo/NS3-3′IET replicon containing the firefly luciferase gene-ubiquitinneomycin phosphotransferase fusion protein and EMCV IRES driven NS3-5B HCV coding sequences containing the ET tissue culture adaptive mutations (E 1202G, T12081, and KI846T). A stock culture of the Huh-luc/neo-ET was expanded by culture in DMEM supplemented with 10% FBS, 2 mM glutamine, penicillin (100 IU/mL)/streptomycin (100 f.Ig/mL) and IX nonessential amino acids plus I mg/ml G418. Prior to plating, the cells were split 1:4 and cultured for two passages in the same medium plus 250 f.Ig/mL G418. The cells were treated with trypsin and enumerated by staining with trypan blue and seeded into 96-well tissue culture plates at a cell culture density 5.0×10^3 cells per well in a volume of 85 f.IL per well and incubated at […] in an environment of 5% CO2 for 24 hours. Six plates were established for the determination of combination efficacy (EC50) and cytotoxicity (TC50) for each of the compound combinations (three plates each for efficacy and toxicity). […] Following incubation, the plates were assessed for anti-HCV activity by measurement of luciferase reporter activity and cellular cytotoxicity by XTT staining.

Molecule | Fold Resistance NS3 A156T [1] [fold] | Fold Resistance NS3 R155K [2] [fold] | Fold Resistance NS5B S282T [3] [fold] | Fold Resistance NS5B M423I [4] [fold] | Fold Resistance NS5A Y93H [5] [fold] | Efficacy, Antagonism vol [7] | Cytotoxicity, Synergy vol (Huh-luc/neo-ET; human) | other results
5′-^mCs^ocsAs^otstsGs^oTs^ocsas^mCs^oas^mCs^ots^mCs^omC^o-3′ (CCATTGTCACACTCC; all phosphorothioate, sugars by position and methylation of C not given here; further chemistry not fully specified) [miravirsen] | 1.0 | 1.2 | 1.9 | 1.7 | 0.9 | – | – | distinct individual resistant clonal populations ([6]; listed as SPC3649): failed to produce distinct individual resistant clonal populations; also recorded: distinct individual resistant clonal populations were not produced; mean of the maximum HCV RNA decline from baseline (HCV genotype 1; 3 mg/kg): 1.2 log10 IU/mL; mean of the maximum HCV RNA decline from baseline (HCV genotype 1; 5 mg/kg): 2.9 log10 IU/mL; mean of the maximum HCV RNA decline from baseline (HCV genotype 1; 7 mg/kg): 3.0 log10 IU/mL; safety and tolerability, adverse events (HCV genotype 1; 3, 5 or 7 mg/kg): no dose-limiting adverse events; also recorded: safe, well-tolerated; escape mutations / emergence of viral resistance (HCV genotype 1; HCV genome miR-122 binding sites): no escape mutations were observed; also recorded: not seen; efficacy against HCV genotypes in vitro (all HCV genotypes): effective against all HCV genotypes in vitro
C[C@@]1(O)[C@H](O)[C@@H](CO)O[C@H]1n1ccc(N)nc1=O [2′-C-Methylcytidine] | 0.9 | 0.8 | – | 1.0 | 1.0 | – | – | –
COC(=O)N[C@H](C(=O)N1CCC[C@H]1c1nc(-c2ccc(-c3ccc(-c4c[nH]c([C@@H]5CCCN5C(=O)[C@@H](NC(=O)OC)C(C)C)n4)cc3)cc2)c[nH]1)C(C)C [BMS 790052, Carbamic acid, N,N′-[[1,1′-biphenyl]-4,4′-diylbis[1H-imidazole-5,2-diyl-(2S)-2,1-pyrrolidinediyl[(1S)-1-(1-methylethyl)-2-oxo-2,1-ethanediyl]]]bis-, C,C′-dimethyl ester] | – | – | – | – | 29.9 | −24.5 μM^2% and −0.06 μM^2% | 0/−21.9 μM^2% | Cytotoxicity, Antagonism vol (Huh-luc/neo-ET; human): 0/−21.9 μM^2%
CCC[C@H](NC(=O)[C@@H]1[C@H]2CCC[C@H]2CN1C(=O)[C@@H](NC(=O)[C@@H](NC(=O)c1cnccn1)C1CCCCC1)C(C)(C)C)C(=O)C(=O)NC1CC1 [Telaprevir, (1S,3aR,6aS)-2-[(2S)-2-[[(2S)-2-Cyclohexyl-2-(pyrazine-2-carbonylamino)acetyl]amino]-3,3-dimethylbutanoyl]-N-[(3S)-1-(cyclopropylamino)-1,2-dioxohexan-3-yl]-3,3a,4,5,6,6a-hexahydro-1H-cyclopenta[c]pyrrole-1-carboxamide] | – | 4.6 | 1.0 | – | – | 0/−3.2 (±3.08/6.89) μM^2% | – | Efficacy, Antag Vol ([7]; in combination with ribavirin, 95% confidence level, individual values): 37.5/22.6; μM^2%; Cytotoxicity, Antagonism vol (Huh-luc/neo-ET; in combination with miravirsen (SPC3649), 95% confidence interval): 0/−5.05 μM^2%; Cytotoxicity, Antag Vol (Huh-luc/neo-ET; in combination with ribavirin, 95% confidence level): 0.00/−50.9 μM^2%; distinct individual resistant clonal populations [6]: production of distinct individual resistant clonal populations
CC(C)(C)C#Cc1cc(N(C(=O)[C@H]2CC[C@H](C)CC2)[C@H]2CC[C@H](O)CC2)c(C(=O)O)s1 [VX-222] | – | – | – | 4.4 | – | −34.44 μM^2% | 0/−28.6; 0/0 μM^2% | –
